Measurements: article PMC9270351, “Conjugates of urolithin A with NSAIDs, their stability, cytotoxicity, and anti-inflammatory potential” (Scientific Reports, 2022)

Legend:
THP-1 monocytes = test: PI flow cytometric assay, cell viability; format: cell-based, human; conditions: 24-h incubation
Protocol: THP-1 monocytes were seeded in 24-well plates at a density of 400,000. Selected UADs (2–50 µM), control (0.25% DMSO in PBS), UA (50 µM) and parthenolide (25 µM) as a control were added to THP-1 monocytes and left for 24-h incubation at 37 °C under humidified 5% CO2 in the culture medium containing RPMI 1640 without phenol red supplemented with 10% FBS and 2 mM glutamine. After that time, cell suspensions were transferred to Eppendorf tubes, centrifuged, stained with propidium iodide (PI) and analyzed using FACS (MACSQuant® Analyze, Miltenyi Biotec, Bergisch Gladbach, Germany). The cell viability was reported as the percentage of PI(−) cells.

[1] = test system: IL-6 secretion in LPS-stimulated THP-1 derived macrophages; test: IL-6 secretion of LPS-stimulated macrophages (ELISA); format: cell-based, human; conditions: 1 h treatment, then LPS 24 h
Protocol: (§1) THP-1 human monocytic cells (DSMZ, Braunschweig, Germany) were studied between passages 4 and 19. Monocytes were differentiated into THP-1 derived macrophages according to modified, previously described protocol. THP-1 monocytes were seeded in 24-well plates at a density of 400,000 cells per well. Cells were incubated at 37 °C under humidified 5% CO2 in the culture medium containing RPMI 1640 without phenol red supplemented with 10% FBS and 2 mM glutamine. In order to differentiate THP-1 monocytes into macrophages, cells were treated with 25 ng/mL PMA followed by 48 h incubation, medium change and an additional 24 h resting. Selected UADs were added to THP-1 derived macrophages at concentrations 2–50 µM and left for 1-h resting. Next, cells were treated with 10 ng/ml LPS. Successful differentiation was confirmed by the presence of distinguishing macrophage markers such as: cell adherence, changes in morphology and response to bacterial LPS stimulation and, consequently, TNF-α secretion.
(§2) After treatment with the test compounds for 1 h and subsequent stimulation with LPS for 3 h (for TNF-α secretion measurements) or 24 h (for IL-10 and IL-6 secretion measurements) supernatants were collected. The secretion of cytokines levels was measured by ELISA kits according to the manufacturer’s instruction (Human TNF-α, Human IL-10 and Human IL-6 ELISA kits, BD Biosciences, Franklin Lakes, NJ, USA). […]

[2] = test system: TNF-α secretion in LPS-stimulated THP-1 derived macrophages; test: TNF-α secretion of LPS-stimulated macrophages (ELISA); format: cell-based, human; conditions: over tested concentrations; 1 h treatment, then LPS 3 h
Protocol: as §1, §2

[3] = test system: THP-1 derived macrophages; test: MTT assay, cell viability; format: cell-based, human; conditions: tested concentration range 2–50 µM; 1 h treatment, then LPS for 3 or 24 h
Protocol: as §1, with “Successful differentiation was confirmed by the presence of distinguishing macrophage markers such as: cell adherence, changes in morphology and response to bacterial LPS stimulation and, consequently, TNF-α secretion.” left out
THP-1 monocytes were seeded in 24-well plates at a density of 400,000 cells per well and differentiated into THP-1 derived macrophages according to the method described above. […] After medium removal, crystals were dissolved in 400 µL DMSO, 200 µL of solution was transferred to 96-well plate and the absorbance of the solution was measured at λ = 570 nm with the correction to 630 nm using a microplate reader. […]

[4] = test system: IL-10 secretion in LPS-stimulated THP-1 derived macrophages; test: IL-10 secretion of LPS-stimulated macrophages (ELISA); format: cell-based, human; conditions: over tested concentrations; 1 h treatment, then LPS 24 h
Protocol: as §1, §2

## COc1ccc2c(c1)c(=O)oc1cc(OC(=O)C(C)c3ccc(CC(C)C)cc3)ccc12 (stereo not shown) [Mix 7, 8-methoxy-6-oxo-6H-benzo[c]chromen-3-yl 2-(4-isobutylphenyl)propanoate]
other
  melting point: 114.4 to 115.7 °C

## COc1ccc2c(c1)c(=O)oc1cc(OC(=O)c3ccccc3Nc3cccc(C)c3C)ccc12 [Mix 8, 8-methoxy-6-oxo-6H-benzo[c]chromen-3-yl 2-((2,3-dimethylphenyl)amino)benzoate]
other
  melting point: 186.7 to 189.2 °C

## COc1ccc2c(c1)c(=O)oc1cc(OC(=O)Cc3ccccc3Nc3c(Cl)cccc3Cl)ccc12 [Mix 9, 8-methoxy-6-oxo-6H-benzo[c]chromen-3-yl 2-(2-((2,6-dichlorophenyl)amino)phenyl)acetate]
other
  melting point: 207.3 to 208.5 °C

## COc1ccc2c(c1)c(=O)oc1cc(OC(=O)c3ccccc3OC(C)=O)ccc12 [Mix 10, 8-methoxy-6-oxo-6H-benzo[c]chromen-3-yl 2-acetoxybenzoate]
other
  melting point: 192.6 to 193.5 °C

## O=c1oc2cc(O)ccc2c2ccc(O)cc12 [UA, 3,8-dihydroxy-6H-benzo[c]chromen-6-one]
THP-1 monocytes; 50 µM
  Cell viability (PI-stained cells, flow cytometry): Slight, yet statistically significant decline in monocytes viability
[1]; 50 µM
  Effect on IL-6 secretion: inhibited secretion of IL-6
[2]
  Effect on TNF-α secretion: inhibitory effect on TNF-α secretion in a dose-dependent manner
[3]
  Cell viability / cytotoxic effect (MTT): no cytotoxic effect was observed
[4]
  Effect on IL-10 secretion: did not significantly affect IL-10 secretion

## Cc1cccc(Nc2ccccc2C(=O)O)c1C [mefenamic acid]
[1]; over tested concentrations
  Effect on IL-6 secretion: increased IL-6 production in a dose-dependent manner
[2]
  Effect on TNF-α secretion: stimulating effect
[4]
  Effect on IL-10 secretion: did not influence IL-10 secretion

## C=C1C(=O)O[C@H]2[C@H]1CC/C(C)=C/CC[C@@]1(C)O[C@@H]21 [parthenolide]
THP-1 monocytes; 25 µM, positive control
  Cell viability (PI-stained cells, flow cytometry): decreased THP-1 viability
